From patent US20230130102A1, “Na/K-ATPase LIGANDS AND USE THEREOF FOR TREATMENT OF CANCER” (Marshall University Research Corporation, priority 2019, published 2023)
“Also recorded” adds a separate entry of the source.

Assays:
[1] = system: PC3 cells; assay: 3D culture spheroid invasion and growth, PC3; assay type: cell-based, human
Description: (§1) 3D culture-spheroid invasion assay. Cells were trypsinized gently (0.05% Trypsin-EDTA) and diluted at 1000 cells in 20 μl of full serum media for DU145 and C4-2 derived sub-clones or 500 cells in 20 ul for PC3 cells and allowed to form spheroids using hanging drop technique for 3 days, as described previously. Generated spheroids were then embedded into 3D matrix (not yet solidified at the time of experiment), as described in the previous section, on top of a 1% solidified agarose coating in 48 well plates. Spheroids were monitored from day 1 to different time points and images were taken using a phase contrast microscope fitted with camera, at same settings. Spheroid growth or invasion area was quantified using ImageJ software from NIH. The following formulas were used for quantitation of spheroids:
(§2) Spheroid invasion=(Invasion area/Spheroid area)*100
(§3) Spheroid growth=(Spheroid area at Day 3 or 7-Spheroid area at 16 hours)/Spheroid area at 16 hours
(§4) For drug treatment, compound was diluted into media, from stock solution. For MMP secretion, conditioned media for 3 days were collected from top of matrix and assessed for MMP secretion by Western blot using Matrix Remodeling Antibody Sampler kit from Cell Signaling Technology (Cat #73959).

[2] = target: T1, α1 NKA (Homo sapiens, UniProt P05023); assay: α1 NKA endocytosis (biotinylation assay) in subclone 4; assay type: cell-based; conditions: xenograft derived clone 4
T1 construct: endogenous in cells; host or cells: subclone 4 (from DU145 α1 NKA knockdown xenograft)
Description: (§5) α1 NKA endocytosis assay. Endocytosis assay was performed as described before.

[3] = system: subclone 5 spheroids (DU145 derived); assay: 3D culture spheroid growth, subclone 5; assay type: cell-based, human; conditions: subclone 5 spheroids in 3D culture
Description: as §1, §3, §4

[4] = target: T2, YFP-tagged α1 NKA (Rattus norvegicus, UniProt P06685); assay: ouabain-induced α1 NKA endocytosis in YFP-α1-TCN cells; assay type: cell-based; conditions: YFP-α1-TCN cells, pretreatment
T2 construct: expressed in transfected cells; host or cells: YFP-α1-TCN cells
Description: It is appreciated that ouabain induces Src/ERK activation (increased protein phosphorylation) of LLC-PK1 cells by binding to α1 NKA and thereby initiates a signaling cascade which results in the endocytosis of the α1 NKA to terminate the signaling.
as §5
Characterization of MB5 activity on the NKA receptor function known as the NKA/Src binary receptor mechanism was conducted in a pig kidney epithelial cells (LLC-PK1)-based platform using immunostaining and Western blot analyses. […] The change of NKA conformation that occurs upon binding of agonists such as ouabain, results in the release and activation of the Src kinase domain from the “Naktide” site of NKA CD3, while the other interaction (constitutive) persists between NKA CD2 and the SH2 domain of Src.

[5] = plasma stability; assay type: in vitro ADME
[6] = system: KD cells from C4-2; assay: Western blot of EMT phenotype in α1 KD cells derived from C4-2; assay type: cell-based, human; conditions: KD cells from C4-2, 1 μM
Description: Cell lines. DU145, PC3 and C4-2 cell lines were purchased from and maintained according to ATCC recommendations. Parental DU145 and derived cell lines were cultured in high glucose […] supplemented with 10% Fetal Bovine Serum and 1% Penicillin/Streptomycin in 37° c. humidified incubator with 5% C02. LLC-PK1, PY17, Y260A, A425P and YFP-α1TCN cells were cultured in the same media and under similar conditions. PC3 and C4-2 cell lines were cultured in RPMI medium with similar conditions as described above. α1 knockdown KD cells were generated from DU145 and C4-2 using a α1 NKA-specific siRNA, as previously described. Knockdown was verified by both qPCR and Western blot analyses. Rat α1 NKA rescued cell lines were generated by transfecting KD cells with a pRC/CMV-α1 AACm1 vector followed by selection with ouabain (2 μM), as previously described. Cells were passaged for three generations without ouabain before conducting experiments.
Western blot, Immunoprecipitation and Immunostaining. Cells were grown to 100% confluency and Western blot were performed as described before. Images were quantified with ImageJ software from NIH. […]

[7] = system: EGF or dopamine induced ERK activation; assay: EGF- or dopamine-induced ERK activation in LLC-PK1 cells; assay type: cell-based, pig
Description: Western blot, Immunoprecipitation and Immunostaining. Cells were grown to 100% confluency and Western blot were performed as described before. Images were quantified with ImageJ software from NIH. Immunoprecipitation studies were performed as described before. α1 NKA immunostaining was performed by growing cells on sterilized coverslips in 6 well tissue culture plates and permeabilization/fixation with ice-cold methanol followed by blocking with 5% horse serum and 0.1% Triton X-100 in 1× Phosphate buffered saline (PBS) for 30 minutes. Coverslips were then stained with an anti-α1 NKA antibody (Millipore, Cat #05-369) at 1:100 dilution in 1% BSA (Bovine Serum Albumin) containing 1×PBS solution for overnight. Next day after three washes, coverslips were stained with Alexa Fluor 488 conjugated anti-mouse secondary antibody (Thermo-Fisher) for 1 hour, washed extensively and then imaged using a fluorescent microscope with GFP filter or confocal microscope (LEICA-DMIRE2). E-cadherin and occludin immunostaining was performed in a similar manner. Phospho-Src, phospho ERK1/2 immunostaining were performed as described before and images were taken with a LEICA DMIRE2 confocal microscope. […]

[8] = system: clone 2 spheroids (DU145 derived); assay: 3D culture spheroid invasion assay, subclone 2; assay type: cell-based, human
Description: as §1, §2, §3, §4

[9] = system: PC3 cells; assay: Spheroid aggregation in ultralow attachment plates, PC3; assay type: cell-based, human
Description: Spheroid aggregation in ultralow attachment plates. 5000 cells were plated in a 6 well ultralow attachment plate from Corning and allowed to form spheroids spontaneously for a week. Cell aggregates were then immunostained for E-cadherin expression using a monoclonal anti-E-cadherin antibody (Santacruz Biotechnology, Catalogue No.sc-71008), followed by Alexa-Fluor 488 anti-mouse secondary antibody (Thermo-Fisher).

[10] = system: parental C4-2 cells; assay: 3D culture spheroid growth, C4-2; assay type: cell-based, human; conditions: parental C4-2, 0.1-2 μM, Day 1-7
Description: as §1, §3

O=c1c2cccc(O)c2oc2c(O)c(O)ccc12 [MB5]
inhibition of spheroid size ([1]; PC3, 0.1 μM): about 25%
inhibition of spheroid size ([1]; PC3, 1 μM): ~50%
spheroid size / growth ([1]; PC3 spheroids): reduced spheroid invasion and growth; also recorded: reduced spheroid size in a concentration-dependent manner
spheroid invasion ([1]; PC3 spheroids, day 7): reduced spheroid invasion; also recorded: suppressed spheroid invasion; also recorded: reduced both invasion
α1 NKA endocytosis [2]: abolished α1 NKA endocytosis; also recorded: significantly reduced α1 NKA endocytosis
spheroid size [3]: significantly reduced the size of subclone 5 spheroids
inhibition of ouabain-induced α1 NKA endocytosis [4]: able to inhibit ouabain-induced α1 NKA endocytosis; also recorded: potent inverse agonist of ouabain-induced α1 NKA endocytosis; also recorded: inhibited ouabain-induced α1 NKA endocytosis in a concentration dependent manner
plasma stability [5]: good plasma stability
expression of SNAIL, SLUG and Myc [6]: inhibiting the expression of SNAIL, SLUG and Myc
occludin and E-cadherin expression [6]: upregulate occludin and E-cadherin expression
EGF-induced ERK activation [7]: did not inhibit; also recorded: failed to inhibit; also recorded: did not affect EGF-induced ERK activation
dopamine-induced ERK activation [7]: did not inhibit; also recorded: failed to inhibit; also recorded: did not affect dopamine-induced activation of ERK
spheroid invasion ([8]; clone 2 spheroids, 3D culture): abolished the invasion; also recorded: suppressed spheroid invasion by subclone 2 cells in a dose-dependent manner; also recorded: significantly reduced invasion of clone 2 spheroids in a dose-dependent manner
spheroid size ([8]; subclone 2 spheroids, 72 hours): significantly reduced spheroid size
cell aggregation ([9]; PC3, ultralow attachment plates): increased cell aggregation in a concentration-dependent manner
E-cadherin expression ([9]; PC3 aggregates, immunostaining): significantly increased E-cadherin expression
spheroid growth [10]: did not significantly affect spheroid growth
